PubChem BioAssay AID328 (DTP/NCI, 2004)
“And” between values parts separate entries of the source, which are not always exact repeats. Equal values may be shown once. Inconclusive results and toxic doses are left out.

Tested on: BDF1 mice, P388 leukemia ip, median survival T/C
Experiment: NCI In Vivo Anticancer Drug Screen. Data for tumor model P388 Leukemia (intraperitoneal) in B6D2F1 (BDF1) mice
Settings: endpoint: median survival time, higher = longer survival
Procedure, shortened: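 Each value expresses how treatment altered survival: treated-mouse outcome over vehicle-mouse outcome, both groups bearing the transplanted tumour.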

[1] = dose: 1.0 mg/kg/injection, schedule: Q04DX003 (ip), vehicle: saline
[2] = dose: 2.0 mg/kg/injection, schedule: Q04DX003 (ip), vehicle: saline
[3] = dose: 4.0 mg/kg/injection, schedule: Q04DX003 (ip), vehicle: saline
[4] = dose: 50.0 mg/kg/injection, schedule: Q01DX009 (ip), vehicle: saline
[5] = dose: 50.0 mg/kg/injection, schedule: Q04DX003 (ip), vehicle: saline
[6] = dose: 100.0 mg/kg/injection, schedule: Q01DX009 (ip), vehicle: saline
[7] = dose: 100.0 mg/kg/injection, schedule: Q01DX009 (ip), vehicle: Klucel (hydroxypropylcellulose) (HPC)
[8] = dose: 100.0 mg/kg/injection, schedule: Q04DX003 (ip), vehicle: Klucel (hydroxypropylcellulose) (HPC)
[9] = dose: 200.0 mg/kg/injection, schedule: Q04DX003 (ip), vehicle: Klucel (hydroxypropylcellulose) (HPC)
[10] = dose: 400.0 mg/kg/injection, schedule: Q04DX003 (ip), vehicle: Klucel (hydroxypropylcellulose) (HPC)
[11] = dose: 100.0 mg/kg/injection, schedule: Q04DX003 (ip), vehicle: saline with Tween-80
[12] = dose: 50.0 mg/kg/injection, schedule: Q01DX009 (ip), vehicle: saline with Tween-80
[13] = dose: 100.0 mg/kg/injection, schedule: Q01DX009 (ip), vehicle: saline with Tween-80
[14] = dose: 200.0 mg/kg/injection, schedule: Q01DX009 (ip), vehicle: saline with Tween-80

SMILES: COC(C/C=C\C=C\CC/C=C/CC(C)/C=C/C(=C\C(=O)O)CC(=O)O)/C(C)=C\C=C(/C)C(=O)O (stereo unspecified)
- T/C [1]: 100 % of control
- T/C [2]: 88 % of control
- T/C (dose: 4.0 mg/kg/injection, schedule: Q01DX009 (ip), vehicle: saline): 87 % of control
- T/C [3]: 94 % of control
- T/C (dose: 6.0 mg/kg/injection, schedule: Q04DX003 (ip), vehicle: saline): 100 % of control
- T/C (dose: 8.0 mg/kg/injection, schedule: Q01DX009 (ip), vehicle: saline): 87 % of control
- T/C (dose: 8.0 mg/kg/injection, schedule: Q04DX003 (ip), vehicle: saline): 108 % of control
- T/C (dose: 16.0 mg/kg/injection, schedule: Q01DX009 (ip), vehicle: saline): 100 % of control
- T/C (dose: 16.0 mg/kg/injection, schedule: Q04DX003 (ip), vehicle: saline): 95 % of control

SMILES: c1nnc(NCNc2nncs2)s1
- T/C (dose: 12.0 mg/kg/injection, schedule: Q04DX003 (ip), vehicle: saline): 100 % of control
- T/C (dose: 12.5 mg/kg/injection, schedule: Q01DX010 (ip), vehicle: saline): 204 % of control
- T/C (dose: 19.0 mg/kg/injection, schedule: Q04DX003 (ip), vehicle: saline): 118 % of control
- T/C (dose: 25.0 mg/kg/injection, schedule: Q01DX010 (ip), vehicle: saline): 227 % of control
- T/C (dose: 29.0 mg/kg/injection, schedule: Q04DX003 (ip), vehicle: saline): 186 % of control
- T/C (dose: 45.0 mg/kg/injection, schedule: Q04DX003 (ip), vehicle: saline): 177 % of control
- T/C [4]: 100 % of control
- T/C (dose: 50.0 mg/kg/injection, schedule: Q01DX010 (ip), vehicle: saline): 90 % of control
- T/C [5]: 190 % of control
- T/C (dose: 66.0 mg/kg/injection, schedule: Q04DX003 (ip), vehicle: saline): 150 % of control and 195 % of control
- T/C [6]: 100 % of control
- T/C (dose: 100.0 mg/kg/injection, schedule: Q04DX003 (ip), vehicle: saline): 227 % of control and 235 % of control and 195 % of control
- T/C (dose: 150.0 mg/kg/injection, schedule: Q04DX003 (ip), vehicle: saline): 210 % of control and 213 % of control

SMILES: NC(CSCc1ccccc1)CSCc1ccccc1
- T/C (dose: 0.78 mg/kg/injection, schedule: Q04DX003 (ip), vehicle: saline): 99 % of control
- T/C (dose: 1.56 mg/kg/injection, schedule: Q04DX003 (ip), vehicle: saline): 86 % of control and 91 % of control
- T/C (dose: 6.25 mg/kg/injection, schedule: Q01DX009 (ip), vehicle: saline): 107 % of control
- T/C (dose: 6.25 mg/kg/injection, schedule: Q04DX003 (ip), vehicle: saline): 99 % of control and 104 % of control
- T/C (dose: 12.5 mg/kg/injection, schedule: Q01DX009 (ip), vehicle: saline): 109 % of control
- T/C (dose: 12.5 mg/kg/injection, schedule: Q04DX003 (ip), vehicle: saline): 94 % of control and 95 % of control and 100 % of control
- T/C (dose: 25.0 mg/kg/injection, schedule: Q01DX009 (ip), vehicle: saline): 118 % of control
- T/C (dose: 25.0 mg/kg/injection, schedule: Q04DX003 (ip), vehicle: saline): 99 % of control and 100 % of control and 120 % of control
- T/C [4]: 109 % of control
- T/C [5]: 104 % of control
- T/C [6]: 109 % of control

SMILES: BrC(Br)c1ccc2ccccc2n1
- T/C [7]: 108 % of control
- T/C [8]: 100 % of control
- T/C (dose: 200.0 mg/kg/injection, schedule: Q01DX009 (ip), vehicle: Klucel (hydroxypropylcellulose) (HPC)): 108 % of control
- T/C [9]: 91 % of control
- T/C (dose: 400.0 mg/kg/injection, schedule: Q01DX009 (ip), vehicle: Klucel (hydroxypropylcellulose) (HPC)): 95 % of control
- T/C [10]: 91 % of control

SMILES: COc1ccccc1CN1CCCN(Cc2ccccc2OC)C1c1ccc(N(CCCl)CCCl)cc1C
- T/C (dose: 65.0 mg/kg/injection, schedule: Q01DX009 (ip), vehicle: Klucel (hydroxypropylcellulose) (HPC)): 95 % of control
- T/C [7]: 109 % of control

SMILES: CN(C)C1C(=O)C(C(N)=O)=C(O)C2(O)C(=O)C3=C(O)c4c(O)cccc4C(C)(O)C3C(O)C12 (stereo unspecified)
- T/C (dose: 50.0 mg/kg/injection, schedule: Q01DX010 (oral), vehicle: water): 100 % of control
- T/C (dose: 100.0 mg/kg/injection, schedule: Q01DX010 (oral), vehicle: water): 109 % of control
- T/C (dose: 200.0 mg/kg/injection, schedule: Q01DX010 (oral), vehicle: water): 100 % of control

SMILES: CCOC(=O)C1OC1(C)c1ccccc1 (stereo unspecified)
- T/C (dose: 75.0 mg/kg/injection, schedule: Q01DX009 (ip), vehicle: Klucel (hydroxypropylcellulose) (HPC)): 95 % of control
- T/C [8]: 100 % of control and 103 % of control
- T/C (dose: 150.0 mg/kg/injection, schedule: Q01DX009 (ip), vehicle: Klucel (hydroxypropylcellulose) (HPC)): 90 % of control
- T/C [9]: 100 % of control and 111 % of control
- T/C (dose: 300.0 mg/kg/injection, schedule: Q01DX009 (ip), vehicle: Klucel (hydroxypropylcellulose) (HPC)): 113 % of control
- T/C [10]: 92 % of control and 104 % of control

SMILES: O=S(=O)(O)c1ccncc1
- T/C (dose: 100.0 mg/kg/injection, schedule: Q01DX001 (ip), vehicle: saline): 116 % of control
- T/C (dose: 200.0 mg/kg/injection, schedule: Q01DX001 (ip), vehicle: saline): 104 % of control
- T/C (dose: 400.0 mg/kg/injection, schedule: Q01DX001 (ip), vehicle: saline): 87 % of control

SMILES: CS(=O)c1ccccc1C(=O)O (stereo unspecified)
- T/C [11]: 106 % of control
- T/C (dose: 200.0 mg/kg/injection, schedule: Q04DX003 (ip), vehicle: saline with Tween-80): 110 % of control
- T/C (dose: 400.0 mg/kg/injection, schedule: Q04DX003 (ip), vehicle: saline with Tween-80): 109 % of control

SMILES: CCN(CCP(c1ccccc1)c1ccccc1)CCP(c1ccccc1)c1ccccc1
- T/C [12]: 86 % of control
- T/C (dose: 66.0 mg/kg/injection, schedule: Q04DX003 (ip), vehicle: saline with Tween-80): 150 % of control
- T/C [11]: 159 % of control

SMILES: CC1OC(n2ccc(NC(=O)c3ccc(NC(=O)C(C)(N)CO)cc3)nc2=O)CC(O)C1OC1OC(C)C(N(C)C)C(O)C1O (stereo unspecified)
- T/C (dose: 2.5 mg/kg/injection, schedule: Q01DX009 (ip), vehicle: saline): 106 % of control
- T/C (dose: 5.0 mg/kg/injection, schedule: Q01DX009 (ip), vehicle: saline): 103 % of control
- T/C (dose: 10.0 mg/kg/injection, schedule: Q01DX009 (ip), vehicle: saline): 111 % of control

SMILES: Clc1ccc(CNc2ncnc3[nH]ncc23)c(Cl)c1
- T/C [12]: 104 % of control
- T/C [13]: 100 % of control
- T/C [14]: 90 % of control

SMILES: O=Nc1ccc(O)c(=O)cc1
- T/C (dose: 1.0 mg/kg/injection, schedule: Q01DX009 (ip), vehicle: saline with Tween-80): 109 % of control
- T/C [1]: 104 % of control
- T/C (dose: 2.0 mg/kg/injection, schedule: Q01DX009 (ip), vehicle: saline with Tween-80): 109 % of control
- T/C [2]: 104 % of control
- T/C (dose: 4.0 mg/kg/injection, schedule: Q01DX009 (ip), vehicle: saline with Tween-80): 90 % of control
- T/C [3]: 116 % of control

SMILES: CC1CCCC/C1=N/NC(=O)c1ccccc1 (stereo unspecified)
- T/C [12]: 87 % of control
- T/C [13]: 91 % of control
- T/C [11]: 95 % of control

SMILES: CCCCN(CCCC)CC(O)c1ccnc2cc3c(cc12)OCO3 (stereo unspecified)
- T/C (dose: 25.0 mg/kg/injection, schedule: Q01DX001 (ip), vehicle: Klucel (hydroxypropylcellulose) (HPC)): 104 % of control
- T/C (dose: 50.0 mg/kg/injection, schedule: Q01DX001 (ip), vehicle: Klucel (hydroxypropylcellulose) (HPC)): 104 % of control
- T/C (dose: 100.0 mg/kg/injection, schedule: Q01DX001 (ip), vehicle: Klucel (hydroxypropylcellulose) (HPC)): 100 % of control
- T/C (dose: 100.0 mg/kg/injection, schedule: Q01DX001 (ip), vehicle: saline with Tween-80): 100 % of control

SMILES: COc1ccc(CCN2COc3ccc4ccc(=O)oc4c3C2)cc1OC
- T/C (dose: 132.0 mg/kg/injection, schedule: Q01DX009 (ip), vehicle: saline with Tween-80): 100 % of control
- T/C [14]: 115 % of control
- T/C (dose: 300.0 mg/kg/injection, schedule: Q01DX009 (ip), vehicle: saline with Tween-80): 115 % of control

SMILES: CN1CCN(c2nc3ccccc3n3nnnc23)CC1
- T/C (dose: 18.75 mg/kg/injection, schedule: Q01DX009 (ip), vehicle: saline with Tween-80): 103 % of control
- T/C (dose: 37.5 mg/kg/injection, schedule: Q01DX009 (ip), vehicle: saline with Tween-80): 100 % of control

SMILES: COC(=O)CCCCC(=O)OC
- T/C [13]: 100 % of control
- T/C [14]: 100 % of control
- T/C (dose: 400.0 mg/kg/injection, schedule: Q01DX009 (ip), vehicle: saline with Tween-80): 109 % of control
